Experimental data published in patent US20230190887A1, “TARGETING G3BP AGGREGATION TO PREVENT NEURODEGENERATION” (priority 2019, published 2023).

Experiments:
[1] = tested on: TIA1, G3BP1 and TDP43 granules in E12.5 motor neurons; experiment: Stress granule protein granules in neurites of arsenite-treated motor neurons; assay type: cell-based, mouse; conditions: sodium arsenite 0.5 mM 30 minutes, then 10 μM peptide; for number of flag-TDP43 granules greater than 2 μm^2 per 100 μm of neurite: WT and ALS mutant flag-TDP43; for number of large TIA1-GFP granules (>2 μm^2) in neurites: WT and mutant TIA1-GFP
Text: To further evaluate whether mutant TIA1 and TDP43 protein aggregates are affected by G3BP1 190-208 peptide, the inventors expressed the mutant proteins in embryonic motor neurons and assessed granules formed in neurites with or without arsenite treatment either in the presence of G3BP1 190-208 or control 168-189 peptide.
FIG. 6: Cell permeable G3BP1 190-208 peptide decreases granules formed by endogenous TIA1 and TDP43 and exogenous TDP43 and TIA1 mutants in motor neurons after sodium arsenite exposure. (A) Embryonic motor neurons isolated from E12.5 mouse embryos were exposed to sodium arsenite (0.5 mM) for 30 minutes and then treated with 10 μM 190- 208 or […] peptide. After fixation endogenous TIA1 was visualized by immunostaining. The number of TIA1 granules greater than 2 μm^2 per 100 μm of neurite were measured. (B) E12.5 motor neurons were treated as described in (A) and immunostaining was used to detect endogenous G3BP1 protein. The number of G3BP1 granules greater than 2 μm^2 per 100 μm of neurite were measured. […] (C) E12.5 motor neurons expressing TIA1-GFT or ALS/FTD-associated mutants TIA1-A381T, TIA1-E384K were treated with sodium arsenite (0.5 mM) for 30 minutes followed by treatment with either 10 μM 190-208 G3BP1 or 168-189 control peptide. The number of cells containing TIA1-GFP puncta were measured 2 μm^2 per 100 μm of neurite and results are reported relative to non-treated controls. The number of TIA1-GFP granules in neurites decreased for WT and ALS/FTD mutants after treatment with 190-208 G3BP1 as compared to the 168-189 control peptide treated cells. (I)) E12.5 motor neurons expressing flag-tagged wildtype TDP43 or ALS-associated mutants TDP43-M337V and TDP43-Q331.K were treated with sodium arsenite (0.5 mM) for 30 minutes followed by treatment with either 10 μM 190-208 G3BP1 or 168189 control peptide. Flag-TDP43 was detected by immunostaining using the anti-flag-antibody. The number of flag-TDP43 granules greater than 2 μm^2 were measured per 100 μm of neurite and the results are reported relative to non-treated controls. The number of Flag-TDP43 granules in neurites were decreased after treatment with 190-208 G3BP1 peptide as compared to the 168-189 control peptide in both WT and ALS/FTD mutants expressing cells. ([…] over 3 cultures; by two-way ANOVA with Tukey HSD post-hoc),

[2] = tested on: E18 cortical neurons; experiment: Aβ-induced neurite degeneration of cortical neurons; assay type: cell-based, rat; conditions: DIV7 E18 cortical neurons, 1 μM Aβ oligomer 16-18 hours, with 10 μM peptide
Description: To test whether the triggering disassembly of stress granules would be protective in Parkinson's and Alzheimer's disease, the inventors employed 1-methyl-4-phenylpyridinium (MPP+)-induced and amyloid β (Aβ)-mediated neurotoxicity models. Rat embryonic day 18 (E18) midbrain neurons cultured for 7 days were treated for 16-18 hours with 100 μM MPP+, see FIGS. 1A and B, while E18 cortical neurons were treated with 1 μM Aβ oligomer, see FIGS. 2A-2B, with or without 10 μM G3BP1 190-208 or 168-189 peptide. As a control, the inventors used non-treated neurons.
FIG. 2: Cell permeable G3BP1 190-208 peptide blocks pathological degeneration beta-amyloid-induced neurotoxicity in cortical neurons. (A) Representative images of NF-labeled (white) E18 cortical neurons. DIV7 cortical neurons were treated with […] (ii) or control (i) and 10 μM 190-208 G3BP1 peptide (iv) or 10 μM 168-189 control peptide (iii) [scale bar=100 μm]. (B) Quantitation of degeneration in cortical neurons treated with 1 μM Aβpeptide-treated neurons after addition of 190-208 G3BP1 or 168-189 control peptide. Solvent treated cells were used as control. […] (N≥95 over 3 cultures; by one-way ANOVA with Tukey HSD post-hoc).

## YGNKKNNNQNNN-VVEPEPEPEPEPEPEPVSE [G3BP1 190-208 peptide]
[1]
  number of flag-TDP43 granules greater than 2 μm^2 per 100 μm of neurite: reversed
  number of large TIA1-GFP granules (>2 μm^2) in neurites: decrease in the number of large granules
  number of endogenous TIA1 and G3BP1 granules greater than 2 μm^2 per 100 μm of neurite: reverses the increase number of these larger granules
[1]; listed as 190-208 G3BP1 peptide
  number of flag-TDP43 granules greater than 2 μm^2 per 100 μm of neurite: decreased
[1]; listed as 190-208 G3BP1
  number of large TIA1-GFP granules (>2 μm^2) in neurites: decreased
[1]; listed as 190-208
  number of endogenous TIA1 and G3BP1 granules greater than 2 μm^2 per 100 μm of neurite: significantly decreased levels of TIA1 and G3BP1 granules
[2]; listed as 190-208 peptide
  neurite degeneration: significant rescue from Aβ-induced neurite degeneration
[2]; listed as G3BP1 190-208
  neurite degeneration: prevented neurite degeneration
